The results in this text go back to patent publication US10857102B2, “Therapeutic compositions comprising rilpivirine HCL and tenofovir disoproxil fumarate” (priority 2010, dated 2020).

The series is described as follows: Rilpivirine dissolution rate (laboratory data, FIG. 9). The series is classed as physicochemical. From the text:
Formulation 3 and Formulation 4 differ in the weight of extragranular excipients and in the amount of croscarmellose sodium present. […] It may be postulated that the higher amounts of diluents in the rilpivirine layer of Formulation 3 that was bioequivalent to the rilpivirine single agent reference tablet could have served to lessen the extent of contact and interactions between rilpivirine and emtricitabine and/or tenofovir DF and achieve bioequivalence.
In addition, the higher amount of croscarmellose sodium, a superdisintegrant, leads to faster layer disintegration and separation of the rilpivirine layer from the emtricitabine/tenofovir DF layer minimizing any potential interactions between rilpivirine with emtricitabine and/or tenofovir DF. […] This is possibly due to the basifying nature of this excipient.

Structures are written as SMILES.

On to `Cc1cc(/C=C/C#N)cc(C)c1Nc1ccnc(Nc2ccc(C#N)cc2)n1.Cl` [rilpivirine, Rilpivirine HCl], for which, for the setting “higher concentrations of croscarmellose sodium in the rilpivirine layer, FIG. 9”, the rilpivirine dissolution rate result is on record as “decreased”. The “intrinsic dissolution rate of rilpivirine” value (in the presence of emtricitabine and/or tenofovir DF) is recorded as “increased”.
